Test results published in patent US20090004207A1, “Methods and Compositions for Inhibiting Pathological Angiogenesis in the Eye” (priority 2007, published 2009).

Key:
[1] = tested on: human COX-2 promoter (phPES2); test: Human COX-2 promoter (phPES2) luciferase reporter activity in EOMA cells; format: cell-based; conditions: mouse hemangioendothelioma cells (EOMA); 100 nM for 5 hours
Method: Cells transfected with phPES2(−1432/+59) luciferase reporter were treated with PMA (100 nM, positive control). Results from one representative experiment is shown (*P<0.01, […], n=4).
EOMA cultures (3×10^5 cells/well) on 6-well plate were grown one day before the transfection. To measure transfection efficiency, cells were co-transfected with pCMV-βgal. For each well, 0.3 μg of the luciferase reporter vector phPES2(−1432/+59), 0.3 μg of the gene of interest (pcDNA3.1-S1p2 or pcDNA3.1-S1p1) and 25 ng of pCMV-βgal mixed with Lipofectin 2000 (Invitrogen) were introduced into the cells as described by the manufacturer. 24 hours after transfection, cells were treated with PMA (100 nm) for 5 hours, if necessary. Cells were harvested and luciferase and β-galactosidase activity were determined with Luciferase assay system (Promega) and Western-light and western-star system (Applied Biosystems) respectively. The amount of plasmid DNA was made constant by adding pcDNA 3.1 and luciferase activity was normalized to μg of protein content.
In addition, it was tested if S1P2 receptor can induce the transcription of the COX-2 gene. For this experiment, the human COX-2 promoter (phPES2) driven reporter activity was measured in transfected endothelial cells. […]

[2] = tested on: Bovine retinal endothelial cells; test: Boyden chamber cell migration assay, S1P-stimulated; format: cell-based; conditions: 1 μM, S1P 100 nM
Method: Bovine retinal endothelial cells were tested to see if JTE013, a specific S1P2 receptor antagonist, would influence normal endothelial cell functions, such as cell migration stimulated by S1P. […] In contrast, VPC44116, a specific inhibitor of S1P1 receptor blocked normal endothelial cell migration stimulated by S1P in these cells.

| SMILES | induction of phPES2 (−1432/+59) promoter activity [1] [fold] | endothelial cell migration stimulated by S1P [2] |
| --- | --- | --- |
| CCCCCCCCCCCCCC(=O)O[C@@H]1[C@@H](C)[C@@]2(O)[C@@H](C=C(CO)C[C@]3(O)C(=O)C(C)=C[C@@H]23)[C@@H]2C(C)(C)[C@]12OC(C)=O [PMA] | 1.83 | – |
| CCCCCCCCc1cccc(NC(=O)[C@H](N)CCP(=O)(O)O)c1 [VPC44116] | – | blocked |
